In patent US20240158418A1 (C4 Therapeutics, Inc., priority 2021, published 2024) one finds DC50 data, which are given here for six compounds.

What all share (format): cell-based
In one assay the target is T1, EGFR L858R-T790M (Homo sapiens, UniProt P00533, L858R/T790M).
T1 construct: NCI-H1975 (harboring EGFR heterozygous L858R-T790M mutations); host or cells: NCI-H1975
The experiment in a line: EGFR degradation, Total EGFR (L858R-specific) HTRF, NCI-H1975. To be noted: NCI-H1975 cells, 6 hours, Total EGFR HTRF, read-out: H1975 EGFR DC50. The procedure, abridged: (§1)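 HTRF read-outs: pY1068 phospho-EGFR for IC50; total EGFR (pan-EGFR in A431, L858R-specific in mutant lines) for DC50. Compounds were titrated 11 points, half-log, from 10 μM in duplicate onto cells in 10% FBS RPMI, incubated 6 h at 37°C.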

The target in a further assay is T2, EGFR L858R-T790M-C797S (Homo sapiens, UniProt P00533, C797S/L858R/T790M).
T2 construct: generated using CRISPR technology to introduce the additional C797S mutation by Horizon Discovery; host or cells: NCI-H1975+CS (CRISPR knock-in of C797S)
The experiment in a line: EGFR degradation, Total EGFR (L858R-specific) HTRF, NCI-H1975+CS. To be noted: 6 hours, Total EGFR HTRF. The procedure, abridged:
as §1
On the technique in general: TR-FRET usually uses a lanthanide donor and a delayed reading to cut background.

The target in a further assay is EGFR L858R (Homo sapiens, UniProt P00533, L858R). The experiment in a line: EGFR degradation, Total EGFR (L858R-specific) HTRF, NCI-H3255. Also noted: NCI-H3255 (harboring EGFR heterozygous L858R mutation); host or cells: NCI-H3255. Particulars: NCI-H3255 cells, 6 hours, Total EGFR HTRF, read-out: H3255 EGFR DC50. An outline of the steps:
as §1

Setting [1] is: Table 9A, NCI-H1975+CS cells, read-out: H1975+ CS EGFR DC50.
Setting [2] is: Table 9B, NCI-H1975 C797S clone, read-out: H1975 C797S clone EGFR DC50.

The structures appear in SMILES notation. Where two headings read alike, the source gives them in different places.

T1 sequence (P00533 25-1210 T790M/L858R): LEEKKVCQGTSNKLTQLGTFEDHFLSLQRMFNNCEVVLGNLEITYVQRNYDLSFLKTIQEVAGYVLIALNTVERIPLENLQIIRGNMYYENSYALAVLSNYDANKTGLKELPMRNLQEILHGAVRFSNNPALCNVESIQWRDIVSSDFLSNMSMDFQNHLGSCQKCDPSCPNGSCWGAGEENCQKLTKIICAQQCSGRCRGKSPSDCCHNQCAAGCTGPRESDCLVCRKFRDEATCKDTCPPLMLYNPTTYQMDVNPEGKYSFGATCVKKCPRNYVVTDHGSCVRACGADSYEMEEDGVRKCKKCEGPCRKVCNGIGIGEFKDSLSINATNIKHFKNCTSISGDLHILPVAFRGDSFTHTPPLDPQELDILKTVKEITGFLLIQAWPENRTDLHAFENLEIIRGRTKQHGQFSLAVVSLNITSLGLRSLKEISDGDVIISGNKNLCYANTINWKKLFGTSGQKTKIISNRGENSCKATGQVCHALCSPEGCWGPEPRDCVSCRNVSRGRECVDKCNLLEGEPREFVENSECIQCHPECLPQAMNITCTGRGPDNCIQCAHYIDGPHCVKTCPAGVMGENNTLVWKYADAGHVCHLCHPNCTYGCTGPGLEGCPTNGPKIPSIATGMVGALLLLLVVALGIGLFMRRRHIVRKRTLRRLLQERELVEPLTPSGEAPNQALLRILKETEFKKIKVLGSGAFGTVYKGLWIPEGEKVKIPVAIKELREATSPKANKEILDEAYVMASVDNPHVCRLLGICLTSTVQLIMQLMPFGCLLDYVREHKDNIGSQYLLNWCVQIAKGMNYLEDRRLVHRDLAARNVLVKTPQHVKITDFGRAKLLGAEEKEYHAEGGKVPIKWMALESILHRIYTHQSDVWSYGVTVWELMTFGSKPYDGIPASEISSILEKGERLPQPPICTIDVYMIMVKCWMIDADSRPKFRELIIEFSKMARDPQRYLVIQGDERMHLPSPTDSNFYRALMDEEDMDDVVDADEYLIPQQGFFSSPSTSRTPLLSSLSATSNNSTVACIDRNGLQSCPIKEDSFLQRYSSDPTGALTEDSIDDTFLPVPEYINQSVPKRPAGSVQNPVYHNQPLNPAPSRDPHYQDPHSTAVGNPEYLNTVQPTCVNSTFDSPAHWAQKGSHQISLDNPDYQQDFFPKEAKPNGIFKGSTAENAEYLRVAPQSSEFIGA
Chain of EGFR L858R (P00533 25-1210 L858R): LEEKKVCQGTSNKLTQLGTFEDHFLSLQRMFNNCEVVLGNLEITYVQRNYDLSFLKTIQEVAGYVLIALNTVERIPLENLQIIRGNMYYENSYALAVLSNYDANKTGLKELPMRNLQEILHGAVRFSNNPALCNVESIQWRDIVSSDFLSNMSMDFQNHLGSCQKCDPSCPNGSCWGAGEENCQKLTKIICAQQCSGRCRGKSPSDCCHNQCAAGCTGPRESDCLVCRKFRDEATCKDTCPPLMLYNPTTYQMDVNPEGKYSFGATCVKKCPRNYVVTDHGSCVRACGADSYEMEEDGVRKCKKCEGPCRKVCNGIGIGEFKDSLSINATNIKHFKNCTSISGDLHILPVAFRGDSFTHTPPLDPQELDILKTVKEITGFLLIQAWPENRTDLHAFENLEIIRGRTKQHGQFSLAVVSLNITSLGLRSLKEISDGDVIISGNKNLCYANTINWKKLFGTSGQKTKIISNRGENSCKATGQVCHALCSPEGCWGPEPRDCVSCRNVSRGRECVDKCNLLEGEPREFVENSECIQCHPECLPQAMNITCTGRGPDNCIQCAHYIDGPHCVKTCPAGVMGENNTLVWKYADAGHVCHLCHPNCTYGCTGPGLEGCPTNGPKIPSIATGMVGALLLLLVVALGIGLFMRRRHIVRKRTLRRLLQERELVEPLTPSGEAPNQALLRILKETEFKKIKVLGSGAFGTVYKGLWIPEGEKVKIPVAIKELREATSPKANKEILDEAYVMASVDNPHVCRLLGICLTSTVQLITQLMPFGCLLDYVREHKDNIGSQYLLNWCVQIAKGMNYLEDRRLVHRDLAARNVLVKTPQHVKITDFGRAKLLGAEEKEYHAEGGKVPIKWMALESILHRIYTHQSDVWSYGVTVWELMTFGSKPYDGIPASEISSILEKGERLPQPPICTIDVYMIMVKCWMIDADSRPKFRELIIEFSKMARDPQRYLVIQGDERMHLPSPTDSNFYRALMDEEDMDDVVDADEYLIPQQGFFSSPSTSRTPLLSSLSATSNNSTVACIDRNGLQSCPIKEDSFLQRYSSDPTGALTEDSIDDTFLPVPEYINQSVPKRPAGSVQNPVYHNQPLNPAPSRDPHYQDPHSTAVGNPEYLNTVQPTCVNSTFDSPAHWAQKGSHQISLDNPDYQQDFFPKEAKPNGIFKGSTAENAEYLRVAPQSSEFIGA
T2 sequence (P00533 25-1210 T790M/C797S/L858R): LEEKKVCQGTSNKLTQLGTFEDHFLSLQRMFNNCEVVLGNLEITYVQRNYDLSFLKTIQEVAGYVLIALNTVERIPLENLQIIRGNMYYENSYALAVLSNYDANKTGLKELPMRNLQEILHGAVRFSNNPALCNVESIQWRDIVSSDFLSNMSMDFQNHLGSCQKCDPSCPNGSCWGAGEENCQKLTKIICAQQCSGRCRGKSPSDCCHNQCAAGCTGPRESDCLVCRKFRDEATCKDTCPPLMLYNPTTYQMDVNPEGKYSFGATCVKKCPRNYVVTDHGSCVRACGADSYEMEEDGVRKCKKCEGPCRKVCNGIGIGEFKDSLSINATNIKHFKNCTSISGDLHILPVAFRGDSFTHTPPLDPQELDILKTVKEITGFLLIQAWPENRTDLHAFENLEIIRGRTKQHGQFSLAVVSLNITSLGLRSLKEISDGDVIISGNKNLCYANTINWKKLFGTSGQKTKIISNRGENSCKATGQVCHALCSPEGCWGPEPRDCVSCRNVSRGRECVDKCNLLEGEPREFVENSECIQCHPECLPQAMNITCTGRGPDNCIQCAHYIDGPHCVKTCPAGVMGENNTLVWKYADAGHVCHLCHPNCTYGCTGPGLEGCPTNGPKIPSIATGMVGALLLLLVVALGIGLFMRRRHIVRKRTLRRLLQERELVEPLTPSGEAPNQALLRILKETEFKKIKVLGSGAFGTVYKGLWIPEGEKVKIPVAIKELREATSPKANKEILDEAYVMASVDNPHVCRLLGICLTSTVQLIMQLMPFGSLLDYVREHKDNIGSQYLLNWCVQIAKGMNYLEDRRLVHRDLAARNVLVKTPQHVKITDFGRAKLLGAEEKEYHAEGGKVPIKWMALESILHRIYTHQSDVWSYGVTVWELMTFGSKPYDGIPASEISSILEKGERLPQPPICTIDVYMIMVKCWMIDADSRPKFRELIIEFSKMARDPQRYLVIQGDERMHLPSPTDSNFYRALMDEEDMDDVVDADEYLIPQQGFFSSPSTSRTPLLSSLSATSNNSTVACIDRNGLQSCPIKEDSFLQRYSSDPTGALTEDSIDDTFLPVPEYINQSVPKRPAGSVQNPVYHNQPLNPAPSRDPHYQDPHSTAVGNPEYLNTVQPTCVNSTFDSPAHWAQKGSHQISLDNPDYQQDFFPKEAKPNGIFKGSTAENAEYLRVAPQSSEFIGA

For the compound `O=C1CCC(Nc2ccc(C3CCN(CC(=O)N4CCN(c5ccc(-c6cc(F)c7c(c6)C(=O)N(C(C(=O)Nc6nccs6)c6ncn8c6CCC8)C7)cc5)CC4)CC3)cc2)C(=O)N1` (stereo not drawn) [Compound 55, 2-(6,7-dihydro-5H-pyrrolo[1,2-c]imidazol-1-yl)-2-[6-[4-[4-[2-[4-[4-[(2,6-dioxo-3-piperidyl)amino]phenyl]-1-piperidyl]acetyl]piperazin-1-yl]phenyl]-4-fluoro-1-oxo-isoindolin-2-yl]-N-thiazol-2-yl-acetamide], the half-maximal degradation concentration (DC50) at EGFR L858R-T790M (Table 9A), at EGFR L858R-T790M-C797S (setting [1]) and at EGFR L858R (Table 9A) was less than 50 nM each time.
In the case of `O=C1CC[C@@H](Nc2ccc(N3CCC(O)(CC(=O)N4CC5(C4)CN(c4ccc(-c6cc(F)c7c(c6)C(=O)N(C(C(=O)Nc6nccs6)c6ncn8c6CCC8)C7)cc4)C5)CC3)c(F)c2)C(=O)N1` (stereo partly drawn) [Compound 98, 2-(6,7-dihydro-5H-pyrrolo[1,2-c]imidazol-1-yl)-2-[6-[4-[2-[2-[1-[4-[[(3R)-2,6-dioxo-3-piperidyl]-amino]-2-fluoro-phenyl]-4-hydroxy-4-piperidyl]acetyl]-2,6-diazaspiro[3.3]heptan-6-yl]phenyl]-4-fluoro-1-oxo-isoindolin-2-yl]-N-thiazol-2-yl-acetamide], the half-maximal degradation concentration (DC50) on EGFR L858R-T790M (Table 9B), at EGFR L858R-T790M-C797S (setting [2]) and at EGFR L858R (Table 9B) was less than 50 nM throughout.
Consider `O=C1CC[C@H](Nc2ccc(C3CCN(CC(=O)N4CCN(c5ccc(-c6cc(F)c7c(c6)C(=O)N(C(C(=O)Nc6nccs6)c6ncn8c6CCC8)C7)cc5)CC4)CC3)cc2)C(=O)N1` (stereo partly drawn) [Compound 56, 2-(6,7-dihydro-5H-pyrrolo[1,2-c]imidazol-1-yl)-2-[6-[4-[4-[2-[4-[4-[[(3S)-2,6-dioxo-3-piperidyl]amino]phenyl]-1-piperidyl]acetyl]piperazin-1-yl]phenyl]-4-fluoro-1-oxo-isoindolin-2-yl]-N-thiazol-2-yl-acetamide], for which the 50% degradation concentration (DC50) on EGFR L858R-T790M (Table 9A), at EGFR L858R-T790M-C797S (setting [1]) and at EGFR L858R (Table 9A) was less than 50 nM each time.
With `O=C1CCC(Nc2ccc(C3CCN(CC(=O)N4CCN(c5ccc(-c6cc(F)c7c(c6)C(=O)N(C(C(=O)Nc6ccccn6)c6ncn8c6CCC8)C7)cc5)CC4)CC3)c(F)c2)C(=O)N1` (stereo not drawn) [Compound 20, 2-(6,7-dihydro-5H-pyrrolo[1,2-c]imidazol-1-yl)-2-[6-[4-[4-[2-[4-[4-[(2,6-dioxo-3-piperidyl)amino]-2-fluoro-phenyl]-1-piperidyl]acetyl]piperazin-1-yl]phenyl]-4-fluoro-1-oxo-isoindolin-2-yl]-N-(2-pyridyl)acetamide], the figures for the DC50 at EGFR L858R-T790M (Table 9A), at EGFR L858R-T790M-C797S (setting [1]) and on EGFR L858R (Table 9A) were 50 to 150 nM, less than 50 nM and less than 50 nM, respectively.
Consider `O=C1CCC(Nc2ccc(C3CCN(CC(=O)N4CC5(C4)CN(c4ccc(-c6cc(F)c7c(c6)C(=O)N(C(C(=O)Nc6nccs6)c6ncn8c6CCC8)C7)cc4)C5)CC3)cc2)C(=O)N1` (stereo not drawn) [Compound 47, 2-(6,7-dihydro-5H-pyrrolo[1,2-c]imidazol-1-yl)-2-[6-[4-[2-[2-[4-[4-[(2,6-dioxo-3-piperidyl)amino]phenyl]-1-piperidyl]acetyl]-2,6-diazaspiro[3.3]heptan-6-yl]phenyl]-4-fluoro-1-oxo-isoindolin-2-yl]-N-thiazol-2-yl-acetamide], for which the DC50 at EGFR L858R-T790M (Table 9A), on EGFR L858R-T790M-C797S (setting [1]) and on EGFR L858R (Table 9A) was less than 50 nM in each case.
For the compound `Cn1nc(N2CCC(=O)NC2=O)c2ccc([C@@H]3CCN(CC(=O)N4CC5(C4)CN(c4ccc(-c6cc(F)c7c(c6)C(=O)N(C(C(=O)Nc6nccs6)c6ncn8c6CCC8)C7)cc4)C5)CC3(F)F)cc21` (stereo partly drawn) [Compound 94, 2-(6,7-dihydro-5H-pyrrolo[1,2-c]imidazol-1-yl)-2-(6-(4-(6-(2-((S)-4-(3-(2,4-dioxotetrahydropyrimidin-1(2H)-yl)-1-methyl-1H-indazol-6-yl)-3,3-difluoropiperidin-1-yl)acetyl)-2,6-diazaspiro[3.3]heptan-2-yl)phenyl)-4-fluoro-1-oxoisoindolin-2-yl)-N-(thiazol-2-yl)acetamide], the DC50 on EGFR L858R-T790M (Table 9B), on EGFR L858R-T790M-C797S (setting [2]) and at EGFR L858R (Table 9B) was less than 50 nM throughout.
